target: T1, gamma-secretase (Homo sapiens, UniProt P49768); assay: Gamma-secretase APP enzyme assay (MBP-C125 Swe cleavage at Aβ40 site, sandwich ELISA); assay type: biochemical; settings: IMR-32 cell membrane extract as enzyme; MBP-C125swe substrate; 2 h at 37° C; read-out: γAPP
T1 construct: The assay used a partially purified extract of IMR-32 cell membranes as the gamma-secretase enzyme preparation; endogenous in cells; host or cells: IMR-32 cell membranes (partially purified extract)
Excerpt: The gamma-secretase APP enzyme assay was designed to measure the specific proteolytic cleavage of an APP substrate (MBP-C125 Swe fusion protein) at the Aβ40 site. The assay used a partially purified extract of IMR-32 cell membranes as the gamma-secretase enzyme preparation and a recombinant fusion protein containing the C-terminal 125 amino acids of the Swedish variant of the APP (MBP-C125swe) as the substrate. This assay involved two steps beginning with the enzymatic reaction generating a cleavage product that was captured with an immobilized antibody specific for the neo-epitope Aβ40 site. The captured cleavage product was then detected in a sandwich ELISA assay with a biotinylated reporter antibody that is specific to Aβ (17-28). Streptavidin-linked alkaline phosphatase was then added that would generate a fluorescent signal proportional to the amount of cleavage product. This assay was used to discover small molecule inhibitors of gamma-secretase.
Briefly, a 149 mg/ml solution of BIGCHAP detergent was made with water at 42° C. and then rotated for 30 minutes at the same temperature. This warmed solution of BigCHAPS(N,N-Bis(3-D-gluconamidopropyl)cholamide) detergent was used to dissolve Brain Extract Type-V (lipid containing a minimum of 40% phosphatidylethanolamine) from Sigma (St. Louis, Mo.) to a concentration of 8 mg/ml. This solution containing BigCHAPS and lipid at 8 mg/ml is then diluted to 0.53 mg/ml lipid with a pre-warmed solution of Hepes and sodium chloride. This final solution containing Hepes buffer, sodium chloride, BigCHAPS detergent and lipid is used to create working solutions of both gamma-secretase (25 Units) and the MBP-C125 substrate (0.05 mg/ml).
Gamma-secretase was then added to a 96-well micro-titre plate and then incubated with various concentrations of inhibitor for 30 minutes at 37° C. MBPC125 substrate was then added to initiate the reaction that would run for two hours at 37° C. The reaction was quenched with the addition of SDS to a final concentration of 0.1% and then 100 μl of the reaction mixture was transferred to a capture ELISA plate and incubated overnight at 4° C. Detection of the cleavage product was performed using a standard sandwich ELISA assay and quantified using a six point standard curve.

`C[C@@H]1c2cn[nH]c2C[C@H](C)N1S(=O)(=O)c1ccc(Cl)cc1` [(4R,6S)-5-(4-chlorophenylsulfonyl)-4,6-dimethyl-4,5,6,7-tetrahydro-1H-pyrazolo[4,3-c]pyridine] and `C[C@H]1Cc2[nH]ncc2[C@H](C)N1S(=O)(=O)c1ccc(Cl)cc1` [(4S,6S)-5-(4-chlorophenylsulfonyl)-4,6-dimethyl-4,5,6,7-tetrahydro-1H-pyrazolo[4,3-c]pyridine] cannot be ordered by IC50: less than 50 nM for the first, less than 50 nM for the second.

Compared with `O=S(=O)(c1ccc(Cl)cc1)N1Cc2cn[nH]c2CC1c1ccncc1` (stereo not shown) [5-(4-chlorophenylsulfonyl)-6-(pyridin-4-yl)-4,5,6,7-tetrahydro-1H-pyrazolo[4,3-c]pyridine], `CCOC(=O)C1c2cn[nH]c2CC(CC)N1S(=O)(=O)c1ccc(Cl)cc1` (stereo not shown) [ethyl 5-(4-chlorophenylsulfonyl)-6-ethyl-4,5,6,7-tetrahydro-1H-pyrazolo[4,3-c]pyridine-4-carboxylate] is lower in IC50: 150 to 300 nM for the first, less than 50 nM for the second. The second is the more potent here.

— patent US7732609B2, “5-(arylsulfonyl)-pyrazolopiperidines” (Elan Pharmaceuticals, Inc., priority 2005, dated 2010)
